“Also recorded” adds a separate entry of the source.
Experiments:
DIAPH1 = DIAPH1 (Homo sapiens, UniProt O60610); assay: pyrene-actin polymerization assay, DIAPH1-FFC; type: biochemical
Experimental: (§1) Several SMIFH2 analogs are known to retain or lose inhibitory activity against mDia1[18]. We sought to expand this dataset to more extensively characterize structure–activity relationships in the SMIFH2/formin complex. All 17 analogs shown in Fig. 4 were synthesized according to the scheme described in the Experimental Procedures (Fig. 6) and characterized by proton NMR (Fig. S8). Each inhibitor was tested for potential interaction with actin in the absence of formin (Figs. S3, S4). […] This panel of 18 inhibitors was tested against five formin FFC fragments (DIAPH1, DIAPH2, INF2, FMNL3, and FMN2), and the IC50 values were measured (Fig. 4 and Table 1). One notable trend in this dataset is that the lack of specificity, noted above for SMIFH2 (Fig. 3), holds for its analogs: no modifications made to SMIFH2 led to a selective inhibitor, at least among the five formins that were tested.
(§2) Figure 4 Structure activity data for SMIFH2 and 17 analogs tested against five human formins. Each individual data point indicates an IC50 value from a titration of inhibitor in the pyrene-actin assembly assay. Conditions: 2 µM actin (5% pyrene-labeled), 4 µM S. pombe profilin, formin (5 nM DIAPH1-FFC, 5 nM DIAPH2-FFC, 5 nM INF2-FFC, 20–37.5 nM FMN2-FFC, 20 nM FMNL3-FFC), inhibitor with a fixed volume of DMSO. […] Because we cannot reliably measure IC50 values above 40 µM, those points are indicated at the > 40 µM line.
(§3) Assays were carried out as described. Rabbit skeletal muscle actin (5% pyrene labeled) was incubated for 2 min at 25 °C with 200 μM EGTA and 50 μM MgCl2 to convert Ca-actin to Mg-actin. When included in the experiment, a 2:1 molar ratio of profilin was incubated with actin for 2 min at 25 °C before conversion to Mg-actin. Polymerization was initiated by adding polymerization buffer (KMEH, final concentration: 10 mM HEPES, pH 7.0, 1 mM EGTA, 50 mM KCl, 1 mM MgCl2). Prior to mixing KMEH with actin, formins and then the inhibitor in DMSO or DMF was added at ≤ 1% of the total volume. Finally, this mixture was rapidly mixed with Mg-actin, with approximately 10–20 s dead time prior to measurement. Fluorescence was monitored every 15 s using a TECAN F200 Pro with λex = 360 ± 17 nm and λem = 415 ± 10 nm. The same volume of organic solvent (DMSO or DMF) was added to each well regardless of inhibitor concentration.

DIAPH2 = target: T1, DIAPH2 (Homo sapiens, UniProt O60879); assay: pyrene-actin polymerization assay, DIAPH2-FFC; type: biochemical
T1 construct: UniProt O60879-2, aa 553–1096; 6-histidine tag (N); made in house; host or cells: ROSETTA-DE3 E. coli
Experimental: as §1, §2, §3

INF2 = target: T2, INF2 (Homo sapiens, UniProt Q27J81); assay: pyrene-actin polymerization assay, INF2-FFC; type: biochemical
T2 construct: UniProt Q27J81-1, aa 469–1249; 6-histidine tag (N); made in house; host or cells: ROSETTA-DE3 E. coli
Experimental: as §1, §2, §3

FMNL3 = target: T3, FMNL3 (Homo sapiens, UniProt Q8IVF7); assay: pyrene-actin polymerization assay, FMNL3-FFC; type: biochemical
T3 construct: UniProt Q8IVF7-1, aa 481-1028; 6-histidine tag (N); made in house; host or cells: ROSETTA-DE3 E. coli
Experimental: as §1, §2, §3

FMN2 = target: T4, FMN2 (Homo sapiens, UniProt Q9NZ56); assay: pyrene-actin polymerization assay, FMN2-FFC; type: biochemical
T4 construct: UniProt Q9NZ56-1, aa 1192-1722; 6-histidine tag (N); made in house; host or cells: ROSETTA-DE3 E. coli
Experimental: as §1, §2, §3

human formins = assay: pyrene-actin polymerization assay, panel of human formin FFC fragments; type: biochemical; conditions: for inhibitory activity against formins tested (in words): five formin FFC fragments (DIAPH1, DIAPH2, INF2, FMNL3, FMN2); for fold change in potency (IC50) compared with SMIFH2 (1): depending on the formin
Experimental: Figure 3 SMIFH2 has broad activity across the human formins. For each titration, pyrene fluorescence was monitored for 2 μM actin (5% pyrene-labeled)/ 4 μM S. pombe profilin. […] Increasing concentration of SMIFH2 is indicated by blue traces, with the µM concentration labeled to the right of each plot. The volume of DMSO added was the same for all traces, regardless of SMIFH2 concentration.
To characterize the specificity of SMIFH2, we titrated the inhibitor against each purified formin, controlling for the volume of DMSO for all polymerization reactions (Fig. 3, as indicated by blue traces).
as §1, §3

solubility in DMSO = type: physicochemical; conditions: had to be dissolved in DMF for assays
mouse Dia1 = system: mouse Dia1; parameters: method as in PMID 19942139; conditions: reported value; cited from earlier work
Drosophila myosin 5 = system: Drosophila myosin 5; parameters: method as in PMID 33589498; conditions: read-out: IC50 actin-induced ATPase activity of Drosophila myosin 5; cited from earlier work
formin = system: formin; parameters: method as in PMID 33589498; conditions: read-out: IC50 formin/mediated actin interactions; cited from earlier work

DIAPH1, sequence (O60610 769-1222 limits assumed): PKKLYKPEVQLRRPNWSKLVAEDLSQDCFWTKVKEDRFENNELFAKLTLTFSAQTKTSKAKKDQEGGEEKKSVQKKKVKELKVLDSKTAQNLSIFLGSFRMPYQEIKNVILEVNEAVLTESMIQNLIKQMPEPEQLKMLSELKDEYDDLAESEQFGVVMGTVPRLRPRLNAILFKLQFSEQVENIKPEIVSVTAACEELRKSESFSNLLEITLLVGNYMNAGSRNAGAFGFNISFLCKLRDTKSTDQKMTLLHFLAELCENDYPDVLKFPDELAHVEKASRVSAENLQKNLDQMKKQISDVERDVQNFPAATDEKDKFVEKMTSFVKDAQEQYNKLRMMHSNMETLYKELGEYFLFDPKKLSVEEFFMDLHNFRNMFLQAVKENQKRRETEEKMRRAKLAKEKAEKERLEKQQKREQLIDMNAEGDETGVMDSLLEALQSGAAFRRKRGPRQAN
T1 sequence (O60879 553-1096 isoform O60879-2): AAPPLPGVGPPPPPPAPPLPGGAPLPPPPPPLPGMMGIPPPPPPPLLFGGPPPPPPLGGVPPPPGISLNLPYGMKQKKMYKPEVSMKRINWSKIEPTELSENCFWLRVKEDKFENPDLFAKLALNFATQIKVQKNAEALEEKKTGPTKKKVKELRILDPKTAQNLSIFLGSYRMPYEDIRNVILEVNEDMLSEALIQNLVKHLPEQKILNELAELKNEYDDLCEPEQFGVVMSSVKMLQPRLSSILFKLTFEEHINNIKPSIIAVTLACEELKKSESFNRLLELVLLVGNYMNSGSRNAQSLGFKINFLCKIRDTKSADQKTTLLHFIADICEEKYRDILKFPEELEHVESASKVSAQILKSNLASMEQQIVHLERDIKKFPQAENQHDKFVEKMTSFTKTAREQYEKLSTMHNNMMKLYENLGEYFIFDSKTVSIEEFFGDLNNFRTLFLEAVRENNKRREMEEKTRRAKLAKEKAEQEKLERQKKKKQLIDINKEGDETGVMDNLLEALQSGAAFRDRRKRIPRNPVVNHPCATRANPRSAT
T4 sequence (Q9NZ56 1192-1722): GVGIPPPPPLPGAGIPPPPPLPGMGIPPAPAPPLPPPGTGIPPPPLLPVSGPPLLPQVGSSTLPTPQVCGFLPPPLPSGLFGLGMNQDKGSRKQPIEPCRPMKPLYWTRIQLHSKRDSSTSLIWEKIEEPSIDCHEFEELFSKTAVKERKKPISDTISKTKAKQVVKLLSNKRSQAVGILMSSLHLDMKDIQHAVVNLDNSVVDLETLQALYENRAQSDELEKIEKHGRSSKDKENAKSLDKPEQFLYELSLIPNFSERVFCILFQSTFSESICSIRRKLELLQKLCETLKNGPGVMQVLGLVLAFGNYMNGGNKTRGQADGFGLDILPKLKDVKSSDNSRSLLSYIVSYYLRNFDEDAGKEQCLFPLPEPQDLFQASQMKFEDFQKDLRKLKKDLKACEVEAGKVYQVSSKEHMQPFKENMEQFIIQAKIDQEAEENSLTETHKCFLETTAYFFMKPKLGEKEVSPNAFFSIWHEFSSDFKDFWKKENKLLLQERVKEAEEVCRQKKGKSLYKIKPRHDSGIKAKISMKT
T3 sequence (Q8IVF7 481-1028): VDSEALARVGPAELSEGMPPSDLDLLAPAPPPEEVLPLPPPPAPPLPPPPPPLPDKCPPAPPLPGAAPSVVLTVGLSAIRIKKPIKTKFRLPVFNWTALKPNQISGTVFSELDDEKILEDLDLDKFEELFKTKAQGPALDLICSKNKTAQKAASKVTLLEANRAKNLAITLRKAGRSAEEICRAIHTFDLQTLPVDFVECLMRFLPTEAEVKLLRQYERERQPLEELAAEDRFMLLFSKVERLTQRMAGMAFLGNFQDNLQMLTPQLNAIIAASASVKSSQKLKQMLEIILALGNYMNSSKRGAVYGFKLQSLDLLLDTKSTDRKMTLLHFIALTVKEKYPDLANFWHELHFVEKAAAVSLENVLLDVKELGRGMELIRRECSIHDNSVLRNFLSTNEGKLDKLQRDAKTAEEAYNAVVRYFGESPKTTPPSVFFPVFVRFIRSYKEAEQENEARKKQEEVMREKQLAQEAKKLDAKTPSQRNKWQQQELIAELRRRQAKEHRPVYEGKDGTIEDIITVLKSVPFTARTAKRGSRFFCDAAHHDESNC
T2 sequence (Q27J81 469-1249): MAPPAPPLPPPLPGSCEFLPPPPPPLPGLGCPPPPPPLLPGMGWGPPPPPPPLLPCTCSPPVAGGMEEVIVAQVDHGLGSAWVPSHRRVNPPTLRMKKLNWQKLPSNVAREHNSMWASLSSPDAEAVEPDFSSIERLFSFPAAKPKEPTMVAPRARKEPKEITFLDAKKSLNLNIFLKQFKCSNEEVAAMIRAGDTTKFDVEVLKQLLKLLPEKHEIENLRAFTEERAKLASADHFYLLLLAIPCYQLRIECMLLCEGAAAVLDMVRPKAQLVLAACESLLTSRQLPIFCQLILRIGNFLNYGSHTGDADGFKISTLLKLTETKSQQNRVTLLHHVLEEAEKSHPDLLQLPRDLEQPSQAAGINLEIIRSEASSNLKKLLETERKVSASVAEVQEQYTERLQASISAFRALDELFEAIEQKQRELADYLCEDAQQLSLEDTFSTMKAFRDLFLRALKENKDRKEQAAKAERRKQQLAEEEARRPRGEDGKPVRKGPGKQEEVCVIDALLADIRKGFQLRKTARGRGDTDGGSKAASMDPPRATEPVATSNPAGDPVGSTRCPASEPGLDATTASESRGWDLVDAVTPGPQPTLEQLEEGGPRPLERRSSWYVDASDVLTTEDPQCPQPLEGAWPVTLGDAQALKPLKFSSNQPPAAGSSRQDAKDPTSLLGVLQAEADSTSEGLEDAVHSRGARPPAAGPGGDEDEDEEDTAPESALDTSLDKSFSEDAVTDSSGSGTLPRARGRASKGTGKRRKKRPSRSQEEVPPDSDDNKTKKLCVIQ

Structure (SMILES) | IC50 (DIAPH1) | IC50 (DIAPH2) | IC50 (INF2) | IC50 (FMNL3) | IC50 (FMN2) | inhibitory activity against formins tested (in words) (human formins) | fold change in potency (IC50) compared with SMIFH2 (1) (human formins) | solubility (solubility in DMSO) | IC50 (mouse Dia1) | IC50 (Drosophila myosin 5) | IC50 (formin)
COc1ccc(N2C(=O)C(=Cc3ccco3)C(=O)NC2=S)cc1 [Compound 10] | 27 ± 12 µM | 12 ± 8 µM | 37 ± 16 µM | 17 ± 6 µM | 23 ± 4 µM | reduced activity |  |  |  |  | 
O=C1NC(=S)N(c2cccc(Br)c2)C(=O)C1=Cc1ccc(Cl)o1 [Compound 15] | 12 ± 6 µM | 4 ± 1 µM | 4 ± 1 µM | 7 ± 1 µM | 11 ± 4 µM | well tolerated |  |  |  |  | 
O=C1NC(=S)N(c2ccc(Br)cc2)C(=O)C1=Cc1ccc(Cl)o1 [Compound 14] | 14 ± 2 µM | 4 ± 1 µM | 8 ± 1 µM | 10 µM | 15 µM |  |  |  |  |  | 
O=C1NC(=S)N(c2cccc(Br)c2)C(=O)C1=Cc1cccs1 [Compound 7] | > 40 µM | > 40 µM | > 40 µM | > 40 µM |  | no detectable inhibitory effect |  |  |  |  | 
CCN1C(=O)C(=Cc2ccco2)C(=O)N(c2cccc(Br)c2)C1=S [Compound 3] | > 40 µM | > 40 µM | > 40 µM | 40 µM | > 40 µM |  |  |  |  |  | 
COc1ccc(N2C(=O)C(=Cc3ccc(Cl)o3)C(=O)NC2=S)cc1 [Compound 12] | 4 ± 1 µM | 1 ± 0.2 µM | 2 ± 1 µM | 3 ± 2 µM | 5 ± 3 µM | most potent inhibitor | two–ninefold |  |  |  | 
O=C1NC(=S)N(c2ccccc2)C(=O)C1=Cc1ccco1 [Compound 9] | > 40 µM | 40 µM | 30 µM | > 40 µM |  | measurable but weak to minimal activity |  | low solubility; also recorded: poorly soluble in DMSO |  |  | 
O=C1NC(=S)N(c2ccc(Br)cc2)C(=O)C1=Cc1ccco1 [Compound 8] | 8 ± 3 µM | 3 ± 1 µM | 7 ± 2 µM | 6 ± 3 µM | 8 ± 4 µM | maintained or slightly enhanced inhibitory activity |  |  |  |  | 
Cc1ccc(C=C2C(=O)NC(=S)N(c3cccc(Br)c3)C2=O)o1 [Compound 17] | > 40 µM | > 40 µM | > 40 µM | > 40 µM | > 40 µM | abolished activity |  |  |  |  | 
O=C1C(=Cc2ccco2)C(=O)N(c2cccc(Br)c2)C(=S)N1c1ccccc1 [Compound 4] | 11 ± 7 µM | 2.3 ± 1.7 µM | 4 ± 1 µM | 4 ± 1 µM | 9 ± 1 µM | well tolerated | 3–fourfold more potent |  |  |  | 
O=C1NC(=S)N(c2cccc(Br)c2)C(=O)C1=Cc1ccc[nH]1 [Compound 6] | > 40 µM | > 40 µM | > 40 µM | > 40 µM | > 40 µM | no detectable inhibitory effect |  |  |  |  | 
O=C1NC(=S)N(c2cccc(Br)c2)C(=O)C1=Cc1ccco1 [Compound 1, 1-(3-bromophenyl)-5-(furan-2-ylmethylene)-2-thioxodihydropyrimidine-4,6(1H,5H)-dione, reference compound] | 30 ± 10 µM | 6 ± 3 µM | 10 ± 5 µM | 21 ± 7 µM | 10 ± 3 µM |  |  |  | 15 µM | ~2 µM | 10 to 20 µM
O=C1NC(=O)N(c2cccc(Br)c2)C(=O)C1=Cc1ccco1 [Compound 5] | > 40 µM | > 40 µM | > 40 µM | > 40 µM | > 40 µM | complete loss of inhibitory activity |  |  |  |  | 
O=C1NC(=S)N(c2cccc(Br)c2)C(=O)/C1=C/C=C/c1ccco1 [Compound 18] |  | 20 µM | > 40 µM |  |  | modest activity |  |  |  |  | 
CN1C(=O)C(=Cc2ccco2)C(=O)N(c2cccc(Br)c2)C1=S [Compound 2] | 13 ± 3 µM | 5 ± 5 µM | 5 ± 2 µM | 4 ± 1 µM | 14 ± 2 µM | well tolerated |  |  |  |  | 
O=C1NC(=S)N(c2cccc(Br)c2)C(=O)C1=Cc1ccc(Br)o1 [Compound 16] | 30 ± 10 µM | 9 ± 1 µM | 7 ± 3 µM | 14 ± 5 µM | 25 ± 5 µM | well tolerated |  |  |  |  | 
COc1ccc(N2C(=O)C(=Cc3cc(Br)co3)C(=O)NC2=S)cc1 [Compound 13] |  | 3.3 ± 0.2 µM | 6 ± 2 µM | 4 ± 1 µM |  |  |  |  |  |  | 
COc1ccc(N2C(=O)C(=Cc3ccc(Br)o3)C(=O)NC2=S)cc1 [Compound 11] | 8 ± 2 µM | 2 ± 1.4 µM | 3 ± 2 µM | 7 ± 1 µM | 10 ± 1 µM |  |  |  |  |  | 
